Each molecule was assayed against T1, human type 1 glycine transporter (GlyT1) (Homo sapiens, UniProt P48067) (assay: Glycine uptake inhibition experiment ([3H] glycine uptake in T98G cells expressing GlyT1)). Settings: not given.
T1 construct: T98G cells (glioma cells) expressing human type 1 glycine transporter (GlyT1) were used; endogenous in cells; host or cells: T98G cells (human glioma cells)
T1 sequence (P48067 1-706): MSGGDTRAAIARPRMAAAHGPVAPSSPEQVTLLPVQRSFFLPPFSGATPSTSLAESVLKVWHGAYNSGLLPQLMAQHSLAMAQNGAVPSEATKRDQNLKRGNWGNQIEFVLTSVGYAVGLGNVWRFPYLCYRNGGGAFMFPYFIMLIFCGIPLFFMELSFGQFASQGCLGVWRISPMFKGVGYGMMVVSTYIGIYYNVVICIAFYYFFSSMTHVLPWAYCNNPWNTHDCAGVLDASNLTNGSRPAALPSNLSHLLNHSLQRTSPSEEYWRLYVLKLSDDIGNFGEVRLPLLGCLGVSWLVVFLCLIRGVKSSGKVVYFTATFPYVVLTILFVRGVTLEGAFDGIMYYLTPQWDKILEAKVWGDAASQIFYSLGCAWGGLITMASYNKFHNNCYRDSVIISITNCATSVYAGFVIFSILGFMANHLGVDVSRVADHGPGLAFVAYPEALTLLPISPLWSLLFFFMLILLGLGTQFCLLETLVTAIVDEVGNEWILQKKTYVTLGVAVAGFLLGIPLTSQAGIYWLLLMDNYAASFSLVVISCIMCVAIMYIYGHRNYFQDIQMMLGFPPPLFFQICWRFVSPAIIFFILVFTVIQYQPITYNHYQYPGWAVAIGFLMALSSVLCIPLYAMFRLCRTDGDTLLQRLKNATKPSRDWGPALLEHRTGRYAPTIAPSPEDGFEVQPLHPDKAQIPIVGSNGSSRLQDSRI
Type: cell-based
Outline: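 T98G glioma cells expressing human GlyT1 were pretreated 10 min with compound in HEPES buffer pH 7.4 (0.2% BSA), then incubated with compound plus 250 nM final [3H]glycine for 15 min at room temperature. Intracellular radioactivity was counted after NaOH lysis; 10 μM ALX5407 defined non-specific uptake. IC50 came from 10^−9–10^−5 M curves.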

SMILES	IC50
CCOc1ccc(CN2C(=O)C(F)(F)c3c(C(O)C(F)F)cccc32)cn1 (single isomer, unassigned) [Compound 278, 4-(2,2-difluoro-1-hydroxyethyl)-1-[(6-ethoxypyridin-3-yl)methyl]-3,3-difluoro-1,3-dehydro-2H-indol-2-one]	210 nM
COc1cccc(CN2C(=O)C(F)(F)c3c(C(O)C(F)F)cccc32)n1 (single isomer, unassigned) [Compound 256, 4-(2,2-difluoro-1-hydroxyethyl)-3,3-difluoro-1-[(6-methoxypyridin-2-yl)methyl)-1,3-dihydro-2H-indol-2-one]	9.6 nM
COc1nc(CN2C(=O)C(F)(F)c3c([C@H](C)O)cccc32)ccc1F [Compound 246, 3,3-difluoro-1-[(5-fluoro-6-methoxypyridin-2-yl)methyl]-4-[(1S)-1-hydroxyethyl]-1,3-dihydro-2H-indol-2-one]	55 nM
C[C@H](O)c1cccc2c1C(F)(F)C(=O)N2Cc1ncc(F)cc1Br [Compound 226, 1-[(3-bromo-5-fluoropyridin-2-yl)methyl]-3,3-difluoro-4-[(1S)-1-hydroxyethyl]-1,3-dihydro-2H-indol-2-one]	40 nM
C[C@H](O)c1cccc2c1C(F)(F)C(=O)N2Cc1ncccc1C(F)(F)F [Compound 227, 3,3-difluoro-4-[(1S)-1-hydroxyethyl]-1 {[3-(trifluoromethyl)pyridin-2-yl]methyl)-1,3-dihydro-2H-indol-2-one]	380 nM
O=C1N(Cc2cncc(C(F)(F)F)c2)c2cccc(C(O)C(F)F)c2C1(F)F (single isomer, unassigned) [Compound 186, 4-(2,2-difluoro-1-hydroxyethyl)-3,3-difluoro-1-{[5-(trifluoromethyl)pyridin-3-yl]methyl}-1,3-dihydro-2H-indol-2-one]	64 nM
O=C1N(Cc2ccnc(C(F)(F)F)c2)c2cccc(C(O)C(F)F)c2C1(F)F (single isomer, unassigned) [Compound 191, 4-(2,2-difluoro-1-hydroxyethyl)-3,3-difluoro-1-{[2-(trifluoromethyl)pyridin-4-yl]methyl}-1,3-dihydro-2H-Indol-2-one]	29 nM
N#Cc1nc(CN2C(=O)C(F)(F)c3c(C(O)C(F)F)cccc32)ccc1F (single isomer, unassigned) [Compound 275, 6-{[4-(2,2-difluoro-1-hydroxyethyl)-3,3-difluoro-2-oxo-2,3-dihydro-1H-indol-1-yl]methyl}-3-fluoropyridine-2-carbonitrile]	9.1 nM

Same assay, conditions: glycine uptake inhibition

SMILES	IC50
Cn1c(CN2C(=O)C(F)(F)c3c([C@@H](O)C(F)(F)F)cccc32)nc2ccccc21 [Compound 137]	150 nM
O=C1N(Cc2ccnc(Cl)c2)c2cccc(C(O)C(F)F)c2C1(F)F (single isomer, unassigned) [Compound 36, 1-[(2-chloropyridin-4-yl)methyl]-4-(2,2-difluoro-1-hydroxyethyl)-3,3-difluoro-1,3-dihydro-2H-indol-2-one]	13 nM
N#Cc1cccc(CN2C(=O)C(F)(F)c3c(C(O)C(F)(F)F)cccc32)n1 (single isomer, unassigned) [Compound 18, 6-{[3,3-difluoro-2-oxo-4-(2,2,2-trifluoro-1-hydroxyethyl)-2,3-dihydro-1H-indol-1-yl]methyl}pyridine-2-carbonitrile]	3300 nM
C[C@H](O)c1cccc2c1C(F)(F)C(=O)N2Cc1cc(Cl)ccn1 [Compound 65, 1-[(4-chloropyridin-2-yl)methyl]-3,3-difluoro-4-[(1S)-1-hydroxyethyl]-1,3-dihydro-2H-indol-2-one]	18 nM
C[C@H](O)c1cccc2c1C(F)(F)C(=O)N2Cc1ccc(Cl)nc1 [Compound 102, 1-[(6-chloropyridin-3-yl)methyl]-3,3-difluoro-4-[(1S)-1-hydroxyethyl]-1,3-dihydro-2H-indol-2-one]	91 nM
N#Cc1cccc(CN2C(=O)C(F)(F)c3c(C(O)C(F)(F)F)cccc32)n1 (single isomer, unassigned) [Compound 19, 6-{[3,3-difluoro-2-oxo-4-(2,2,2-trifluoro-1-hydroxyethyl)-2,3-dihydro-1H-indol-1-yl]methyl}pyridine-2-carbonitrile]	60 nM
C[C@H](O)c1cccc2c1C(F)(F)C(=O)N2Cc1cc(C#N)ccn1 [Compound 85, 2-({3,3-difluoro-4-[(1S)-1-hydroxyethyl]-2-oxo-2,3-dihydro-1H-indol-1-yl}methyl)pyridine-4-carbonitrile]	420 nM
CC(O)c1cccc2c1C(F)(F)C(=O)N2Cc1cncc(Cl)c1 (single isomer, unassigned) [Compound 7, 1-[(5-chloropyridin-3-yl)methyl]-3,3-difluoro-4-(1-hydroxyethyl)-1,3-dihydro-2H-indol-2-one]	14 nM
C[C@H](O)c1cccc2c1C(F)(F)C(=O)N2Cc1ccc(C(F)F)cn1 [Compound 131, 1-{[5-(difluoromethyl)pyridin-2-yl]methyl)-3,3-difluoro-4-[(1S)-1-hydroxyethyl]-1,3-dihydro-2H-indol-2-one]	930 nM
C[C@H](O)c1cccc2c1C(F)(F)C(=O)N2Cc1ccnc(C(F)F)c1 [Compound 117, 1-{[2-(difluoromethyl)pyridin-4-yl]methyl}-3,3-difluoro-4-[(1S)-1-hydroxyethyl]-1,3-dihydro-2H-indol-2-one]	31 nM
C[C@@H](O)c1cccc2c1C(F)(F)C(=O)N2Cc1ccnc(F)c1 [Compound 43, 3,3-difluoro-1-[(2-fluoropyridin-4-yl)methyl]4-[(1R)-1-hydroxyethyl]-1,3-dihydro-2H-indol-2-one]	4400 nM
C[C@H](O)c1cccc2c1C(F)(F)C(=O)N2Cc1nc2ccccc2[nH]c1=O [Compound 98, 3-({3,3-difluoro-4-[(1S)-1-hydroxyethyl]-2-oxo-2,3-dihydro-1H-indol-1-yl}methyl) quinoxalin-2(1H)-one]	34 nM
C[C@H](O)c1cccc2c1C(F)(F)C(=O)N2Cc1ccc2ncoc2c1 [Compound 127, 1-(1,3-benzoxazol-6-ylmethyl)-3,3-difluoro-4-[(1S)-1-hydroxyethyl]-1,3-dihydro-2H-indol-2-one]	29 nM
C[C@H](O)c1cccc2c1C(F)(F)C(=O)N2Cc1cccc(C(F)(F)F)n1 [Compound 67, 3,3-difluoro-4-[(1S)-1-hydroxyethyl]-1-{[6-(trifluoromethyl)pyridin-2-yl]methyl}-1,3-dihydro-2H-indol-2-one]	17 nM
O=C1N(Cc2cncc(Cl)c2)c2cccc(C(O)C(F)(F)F)c2C1(F)F (single isomer, unassigned) [Compound 22, 1-[(5-chloropyridin-3-yl)methyl]-3,3-difluoro-4-(2,2,2-trifluoro-1-hydroxyethyl)-1,3-dihydro-2H-indol-2-one]	1900 nM

Same assay, conditions: table section whose head prints (μm)

SMILES	IC50
O=C1N(Cc2cc(Cl)c(F)cn2)c2cccc(C(O)C(F)F)c2C1(F)F (single isomer, unassigned) [Compound 266, 1-[(4-chloro-5-fluoropyridin-2-yl)methyl]-4-(2,2-difluoro-1-hydroxyethyl)-3,3-difluoro-1,3-dihydro-2H-indol-2-one]	21 nM
N#Cc1nc(CN2C(=O)C(F)(F)c3c(C(O)C(F)F)cccc32)ccc1C(F)(F)F (single isomer, unassigned) [Compound 270, 6-{[4-(2,2-difluoro-1-hydroxyethyl)-3,3-difluoro-2-oxo-2,3-dihydro-1H-indol-1-yl]methyl}-3-(trifluoromethyl) pyridine-2-carbonitrile]	8.4 nM
